Among the data in patent US10976310B2, “Ligand identification by co-fractionation” (MAX-PLANCK-GESELLSCHAFT ZUR FÖRDERUNG DER WISSENSCHAFTEN …, priority 2016, dated 2021) are ΔTm values, retold here.

For this experiment, the target named is T1, Rbp47b-TAP protein (Arabidopsis thaliana, UniProt Q0WW84).
T1 construct: expressed in transfected cells; host or cells: Arabidopsis cell suspension culture, Agrobacterium-transformed
T1 sequence (Q0WW84 1-435): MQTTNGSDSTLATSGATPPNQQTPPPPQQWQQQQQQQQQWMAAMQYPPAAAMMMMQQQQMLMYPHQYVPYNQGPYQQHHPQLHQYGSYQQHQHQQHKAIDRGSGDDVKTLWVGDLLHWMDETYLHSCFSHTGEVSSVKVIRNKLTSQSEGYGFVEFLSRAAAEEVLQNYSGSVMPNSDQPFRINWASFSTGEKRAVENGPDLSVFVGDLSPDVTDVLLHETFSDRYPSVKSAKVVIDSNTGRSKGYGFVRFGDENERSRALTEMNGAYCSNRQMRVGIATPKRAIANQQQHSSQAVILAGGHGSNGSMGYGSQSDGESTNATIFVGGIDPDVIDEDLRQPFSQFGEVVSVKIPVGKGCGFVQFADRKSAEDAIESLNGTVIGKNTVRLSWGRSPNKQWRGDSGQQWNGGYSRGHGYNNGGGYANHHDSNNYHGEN
Nature of the experiment: Cellular thermal shift assay (CETSA) in native Arabidopsis lysate. Type of experiment: binding. The conditions noted are these: read-out: change of Rbp47b melting temperature (thermal destabilization). As to the method: To this end we set out to identify the binding protein partners of 2′,3′-cAMP by applying affinity purification (AP) using agarose beads, with 2′,3′-cAMP linked via the NH2 group of the purine ring. After incubation of the beads with total soluble-protein extracts from A. thaliana cell suspension cultures (cf. Materials and Methods) sequential washings with ADP, GDP, 5′-AMP, and finally 2′,3′-cAMP were performed, and the proteins eluting in the different washings were analyzed by LC-MS/MS proteomics. Proteins eluting from the agarose beads exclusively with 2′,3′-cAMP but absent in any of the other eluents (ADP, GDP, or 5′-AMP; FIG. 10A) were defined as 2′,3′-cAMP-binding. Applying this stringent criterion only one protein remained: the polyadenylate-binding protein Rbp47b. We reasoned that the putative formation of Rbp47b-2′,3′-cAMP complexes in vivo should be reflected by largely overlapping elution profiles of the two components in a size-exclusion experiment (SEC), as was indeed the case (FIG. 10B). To obtain further and independent evidence for the formation of a complex between Rbp47b and 2′,3′-cAMP, we performed a cellular thermal shift assay (CETSA) (Franken et al. (2015) Thermal proteome profiling for unbiased identification of direct and indirect drug targets using multiplexed quantitative mass spectrometry. Nat Protoc 10: 1567-1593). CESTA is a method used in the drug research to verify ligand-receptor binding in the native cellular lysate, based on the observation that presence of the ligand changes thermal stability of the protein receptor. Herein, we adapted the protocol to be suitable for the plant material and an endogenous […] metabolite. We used Arabidopsis cells expressing a tagged version of the Rbp47b, so that Rbp47b level could be easily detected with the anti-tag antibody. […] Taken together, three independent experimental approaches (AP, SEC, and CETSA) provide evidence for the binding of 2′,3′-cAMP to Rbp47b in the native Arabidopsis lysate. […]

For `Nc1ncnc2c1ncn2[C@@H]1O[C@H](CO)[C@H]2OP(=O)(O)O[C@H]21` [2′,3′-cAMP], the ΔTm at 10 µM came out at 2.4 °C and the ΔTm at 100 µM was 5.1 °C.
